Assay results reported in PubChem BioAssay (NCI).
Several values for one entry are separate records, joined by “and”; a condition that tells them apart may be missing. Equal entries are not always repeated.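 Five compound concentrations were applied to cells in 96-well plates for 48 hours; endpoints were derived by simple linear interpolation of the resulting dose-response curve. At the GI50, growth is halved. TGI denotes the concentration required for complete inhibition of growth.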 *1 amine or outer side, *2 acyl side, *3 side chain or, on linkers, in order; H or OH if unused. Where a SMILES comes first, the peptide text is derived from it. Bridges are numbered along the chain shown (N, C = ends). Roman numbers before positions name the chains, in order. [ ]: non-standard residue; d: D form. Actinocin(9to1) = Cc1c2oc3c(C)ccc(C(=O)[*:1])c3nc-2c(C(=O)[*:2])c(N)c1=O; NMeT = CN[CH](C(=O)O)[CH](C)O; Sar = CNCC(=O)O

Columns and labels:
Assay in all cases: NCI tumour cell line growth inhibition, 48 h
M19-MEL melanoma = test system: M19-MEL melanoma
KM20L2 colon = test system: KM20L2 colon
HOP-18 NSCLC = test system: HOP-18 NSCLC
DMS 273 small cell lung = test system: DMS 273 small cell lung
SNB-78 CNS = test system: SNB-78 CNS
XF 498 CNS = test system: XF 498 CNS
DMS 114 small cell lung = test system: DMS 114 small cell lung
MDA-N = test system: MDA-N
RXF-631 renal = test system: RXF-631 renal
P388 leukemia = test system: P388 leukemia
P388/ADR leukemia = test system: P388/ADR leukemia
SN12K1 renal = test system: SN12K1 renal

Row | SMILES | TGI (M19-MEL melanoma) [µM] | TGI (KM20L2 colon) [µM] | TGI (HOP-18 NSCLC) [µM] | TGI (DMS 273 small cell lung) [µM] | TGI (SNB-78 CNS) [µM] | TGI (XF 498 CNS) [µM] | TGI (DMS 114 small cell lung) [µM] | TGI (RXF-631 renal) [µM] | further results
1 | CC(=O)OC1CCn2nnc(CO)c21 (configuration not stated) | > 100 | > 100 | > 100 | > 100 | > 100 | > 100 | > 100 |  | 
2 | Cc1cc(=O)oc2c(C)c(O)ccc12 |  |  |  |  |  |  |  |  | TGI (MDA-N): > 100 µM
3 | COc1ccc2c3c([nH]c2c1[N+](=O)[O-])C(C)N(Cc1ccc([N+](=O)[O-])cc1)CC3 (configuration not stated) |  | 45 |  | 27.8 | > 100 |  |  |  | 
4 | CN1CC(=O)N(C)c2ncn(Cc3ccccc3)c2C1=O | > 100 |  | > 100 | > 100 | > 100 | 96.4 | > 100 | > 100 | 
5 | COc1ccc(C(=O)C(C(=O)CC(=O)Nc2cccc(C(F)(F)F)c2)c2ccc(OC)cc2)cc1 (configuration not stated) | > 100 | > 100 |  | > 100 | > 100 | > 100 | > 100 | > 100 | 
6 | COc1ccc(-c2cc(=O)c3ccccc3o2)cc1N | > 100 | > 100 | > 100 | > 100 | > 100 | 91.1 | > 100 | > 100 | 
7 | C[C@]12CC[C@H](OC3OC(CO)C(O)C(O)C3O)C[C@H]1CC[C@@H]1[C@@H]2CC[C@]2(C)[C@@H](C3=CCOC3=O)CC[C@]12O (some centres not stated) | 37.9 | 50 |  | 25.1 | 50 | 11.2 | 50 |  | TGI (P388 leukemia): 20.9 µM; TGI (P388/ADR leukemia): 50 µM; TGI (MDA-N): > 100 µM; TGI (SN12K1 renal): 41.5 µM
8 | O=C(O)NC(c1ccccc1)C(NC(=O)c1ccccc1)c1ccccc1 (configuration not stated) | > 100 | > 100 | > 100 |  | > 100 | > 100 | > 100 |  | 
9 | O=c1ccs[nH]1 |  |  |  |  |  |  |  |  | TGI (MDA-N): 60.2 µM
10 | COc1cc(OC)c(SSCCCCS(=O)O)c(OC)c1 | 22.9 | 37.9 | 45.8 | 34.8 | 29.4 | 27.6 | 39 |  | 
11 | CC(=O)c1cccc(C)c1C(=O)O | > 100 | > 100 | > 100 | > 100 | > 100 |  | > 100 |  | 
12 | C=C1C(C2(C)C(OC(C)=O)CC(=O)OC(C)(COC(C)=O)C2CC(=O)OC)C(OC=O)C(OC(=O)C(O)C(C)CC)C2(C)C(c3ccoc3)CC(=O)C12O (configuration not stated) |  |  |  |  |  |  |  |  | TGI (MDA-N): > 100 µM
13 | O=C(O)CCCSc1ccccc1 |  |  |  |  |  |  |  |  | TGI (MDA-N): > 100 µM
14 | NC[C@H]1Nc2ccccc2[C@@H](O)C1O (some centres not stated) |  |  |  |  |  |  |  |  | TGI (MDA-N): > 100 µM
15 | COc1ccccc1C(O)(c1ccccc1)C(O)(c1ccccc1)c1ccccc1OC (configuration not stated) | > 100 | > 100 | > 100 | > 100 | > 100 | > 100 | > 100 | > 100 | 
16 | CCN(CC)CCCNC(=O)C1COc2cc(-c3cc(=O)c4ccccc4o3)ccc2O1 (configuration not stated) | 76.4 | > 100 | > 100 | > 100 | > 100 |  | 50.9 | > 100 | 
17 | CC1=C[C@]2(O)C(=O)[C@H](C)C[C@H]3[C@@H](CC[C@@](C)(O)/C=C\2C1=O)C3(C)C | 33.4 | 19.5 | 98.9 | 52.3 | 82.5 | 32.8 | > 53.9 | > 74.3 | 
18 | COc1ccc(/C(=N\NC(=O)C(=O)NN)C(c2ccc(OC)cc2)C2(O)C(=O)Nc3ccccc32)cc1 (configuration not stated) | > 100 | > 100 |  | > 100 | > 100 | > 100 | > 100 | > 100 | 
19 | CC(=O)[CH-]C(=O)c1ccccc1.CC(=O)[CH-]C(=O)c1ccccc1.CC(C)CCCC(C)[C@H]1CCC2[C@@H]3CC=C4C[C@@H]([O-])CC[C@]4(C)C3CC[C@@]21C.CC(C)CCCC(C)[C@H]1CCC2[C@@H]3CC=C4C[C@@H]([O-])CC[C@]4(C)C3CC[C@@]21C.[Ti+4] (some centres not stated) |  | > 100 | > 100 | > 100 |  |  |  |  | GI50 (KM20L2 colon): > 100 µM; GI50 (HOP-18 NSCLC): > 100 µM; GI50 (DMS 273 small cell lung): > 100 µM
20 | Cc1c2oc3c(C)ccc(C(=O)NC4C(=O)NC(C(C)C)C(=O)N5CCCC5C(=O)N(C)CC(=O)N(C)C(C(C)O)C(=O)OC4C)c3nc-2c(C(=O)NC2C(=O)NC(C(C)C)C(=O)N3CCCC3C(=O)N(C)CC(=O)N(C)C(C(C)O)C(=O)OC2C)c(N)c1=O (configuration not stated) (I: TVP[Sar][NMeT] / II: TVP[Sar][NMeT]; ester I:1-I:C, II:1-II:C; linker I:N-II:N via Actinocin(9to1); configuration not given here) |  |  |  |  |  |  |  |  | TGI (MDA-N): 16.9 µM and > 1 µM

Row | SMILES | TGI (M19-MEL melanoma) [µM] | TGI (KM20L2 colon) [µM] | TGI (HOP-18 NSCLC) [µM] | TGI (DMS 273 small cell lung) [µM] | TGI (SNB-78 CNS) [µM] | TGI (XF 498 CNS) [µM] | TGI (DMS 114 small cell lung) [µM] | TGI (RXF-631 renal) [µM] | further results
21 | Cn1nc(-c2ccccc2)c(C(=O)/C=C/c2ccc(Cl)cc2)c(N2CCCCC2)c1=O | 5.07 | 6.46 | 4.94 | 6.75 |  | 3.91 | 4.37 | 9.79 | 
22 | O=C1c2ccccc2-c2oc(=O)c3ccccc3c21 |  |  |  |  |  |  |  |  | TGI (MDA-N): > 100 µM
23 | CC(=O)CC(N)=O | > 100 | > 100 | > 100 | > 100 | > 100 | > 100 | > 100 | > 100 | 
24 | CCOC(=O)NC1C2CC(=O)OC(O2)C1OC(C)=O (configuration not stated) | > 100 | > 100 | > 100 | > 100 | > 100 |  |  | > 100 | 
25 | O=C(Nc1ccc(Cl)cc1Cl)C1C(=O)C(=O)N(c2ccc(Cl)cc2Cl)C1=O (configuration not stated) | > 100 | > 100 | > 100 |  | > 100 |  | > 100 |  | 
26 | CCOC(=O)Cc1ccc2c(c1O)C(=O)c1c(ccc(CC(=O)OCC)c1O)C2=O | > 100 | > 100 | > 100 | > 100 | > 100 | > 100 | > 100 |  | 
27 | CC1=C(C(=O)Nc2cc(=O)n(C)c(=O)n2C)C(c2cccc([N+](=O)[O-])c2)C(C(=O)Nc2cc(=O)n(C)c(=O)n2C)=C(C)N1 | > 100 | > 100 |  |  | > 100 |  | > 100 |  | 
28 | c1ccc2c(NCCCCCCNc3c4ccccc4nc4ccccc34)c3ccccc3nc2c1 | 2.48 | 3.05 | 15.2 | 1.35 |  | 2.72 | 2 |  | TGI (MDA-N): 1.62 µM
29 | CC(C)(C)CC(C)(C)c1cc2c(O)c(c1)Cc1cc(C(C)(C)CC(C)(C)C)cc(c1O)Cc1cc(C(C)(C)CC(C)(C)C)cc(c1O)Cc1cc(C(C)(C)CC(C)(C)C)cc(c1O)Cc1cc(C(C)(C)CC(C)(C)C)cc(c1O)C2 | > 100 | > 100 |  | > 100 | > 100 | > 100 | > 100 |  | 
30 | CC(=C/C=C/C=C(C)\C=C\C=C(\C)C(=O)O)/C=C/C=C(/C)C(=O)O |  |  |  |  |  |  |  |  | TGI (MDA-N): > 100 µM
31 | C=C(C#N)C1OCC2OC(C)(C)OC21 (configuration not stated) | 61.8 |  | 81.7 | 43.1 | 43 |  | 57.2 | 35.8 | 
32 | CCOc1ccc(N=Cc2ccc3cc(C)ccc3n2)cc1 | > 100 | > 100 | > 100 | > 100 | > 100 | > 100 | > 100 | > 100 | 
33 | O=C1O/C(=C\c2ccccc2)N(c2ccccc2)C1=O |  |  |  |  |  |  |  |  | TGI (MDA-N): > 100 µM
34 | O=C(CCc1nnc2s/c(=C\c3ccc(Cl)c(Cl)c3)c(=O)n12)Nc1ccc(Cl)c(Cl)c1 | > 100 | > 100 | > 100 |  |  | > 100 | > 100 |  | 
35 | O=C(O)Cc1cc(=O)[nH]c2c1/C(=N/O)CCC2 |  |  | > 100 |  |  | > 100 |  |  | 
36 | C#CCOCn1cnc2c(Sc3c([N+](=O)[O-])ncn3C)ncnc21 | > 100 | > 100 |  | > 100 |  | > 100 | > 100 | > 100 | 
37 | C[C@]12CCC(=O)C(O)=C1CC[C@@H]1C2CC[C@]2(C)NC(=O)CCC12 (some centres not stated) | > 100 | > 100 | > 100 | > 100 | > 100 | > 100 | > 100 | > 100 | 
38 | COC(=O)C1=C(O)c2cc(-c3ccccc3)c(-c3ccccc3)c(C#N)c2NC(=O)C1 | > 100 | > 100 |  | > 100 | > 100 | > 100 | > 100 | 41 | 
39 | O=C1O[C@H](c2ccccc2)[C@@H]2CC3(CCN12)OCCO3 |  | > 100 |  | > 100 |  | > 100 |  | > 100 | 
